Laboratory results taken from the SangsterLogP compilation.

assay: method code SF-HPLC, from Li, N. Y., Li, Y., & Gorrod, J. W. (1992). Determination of partition coefficients and ionisation constants of(S)(-)-nicotine and certain metabolites. Med. Sci. Res., 20(23)901-902.; settings: pH 2.0

logD	Structure (SMILES)
-2.42	O=C(O)Cc1cccnc1
-1.06	O=C(O)CCC(=O)c1cccnc1

same assay, conditions: pH 7.4

logD	Structure (SMILES)
-1.22	CN1C(=O)C(O)CC1c1cccnc1 (centres undefined)
-0.13	CNC(=O)CCC(=O)c1cccnc1
-2.54	CN1C(=O)CCC1c1ccc[n+]([O-])c1 (centres undefined)
0.07	CN1C(=O)CC[C@H]1c1cccnc1

same assay, conditions: pH 12.0

logD	Structure (SMILES)
-0.57	CN1C(=O)CCC1(O)c1cccnc1 (centres undefined)
-1.01	O=C1CCC(c2ccc[n+]([O-])c2)N1 (centres undefined)

Structure (SMILES)	logD
O=C1CC[C@@H](c2cccnc2)N1	-0.4
